Patent US20100150938A1, “METHODS AND COMPOSITIONS FOR REDUCING INFLAMMATION AND TREATING INFLAMMATORY DISORDERS” (UNIVERSITY OF MASSACHUSETTS, priority 2008, published 2010)
Entries after “also recorded” stand apart in the source; their conditions may differ.

Legend:
ASC = experiment: ASC-CFP microglia cell line, ASC clustering; type: cell-based, mouse; settings: LPS-primed ASC-CFP microglia, 3 h after stimulation
Description: Human ASC was fused to CFP using BgIII/BamHI in pEF-BOS-CFP. Subsequently, ASC-CFP was cloned using XhoI and NotI into a modified form of FUGW (FUGW-XN). FUGW-XN was modified by replacing GFP with a novel cut site that created XhoI and NotI compatible ends upon Esp3I digestion.
Lentivirus was produced in 293T cells transfected with the FUGW based expression vector coding for ASC-CFP, lentiviral packaging plasmid containing gag, pol and rev genes (pCMV-dR8.91) and envelope plasmid (VSV-G) using TransIT-LT1 transfection reagent (Minis Bio, MIR 2300/5/6) as previously described^46. One day after transfection, medium was replaced and after one additional day of culture supernatants containing the lentivirus was removed, filtered and used to infect immortalized microglia cells.
For experiments, ASC-CFP microglial cells were seeded in duplicate into confocal dishes, stimulated as indicated. A647-labeled cholera toxin subunit B (1:1000) was added to stain cellular membranes. Cells were subsequently imaged using confocal microscopy (Leica SP2 AOBS). Cells were fixed and 5 random fields were imaged in duplicate for quantification.
First, we stably transduced microglial cell cultures with a fusion protein of ASC and cyan fluorescent protein (CFP). ASC forms large oligomers upon its activation, leading to visible changes in the cytoplasmic fluorescence pattern of ASC-CFP. […]

[1] = system: CCL-3/MIP1 a, CCL4/MIP1β and CXCL2/MIP2; experiment: Chemokine mRNA in microglia (QRT-PCR); type: cell-based, mouse; settings: wild type microglial cells, Aβ 10 μM, 6 and 24 h
Method: Immortalized murine microglia were seeded in 6 well tissue culture plates, incubated in the absence or presence of 10 μM Aβ, washed with PBS and lysed in 1 mL TRIZOL reagent (Invitrogen). RNA was purified by organic extraction. 5 μg of RNA from each sample was reverse transcribed using multiscribe reverse transcriptase (Applied Biosystems). Oligonucleotide primers were designed using the Primer3 Input PCR primer design program (version 0.4.0.) and QRT-PCR experiments were performed using an iQ Real-Time PCR Detection System (Bio-Rad) and Optical System Software (Version 2.0, Bio-Rad). Relative quantification of mRNA expression was calculated by the comparative cycle method as described by the manufacturer.

lysosomes of microglia = experiment: Lysosomal swelling and damage in microglia after Aβ phagocytosis (LAMP-1, cathepsin B, LysoTracker); type: cell-based, mouse
Method: Neuronal, microglial, mixed neuronal/microglial and primary mixed glial cultures were fixed with 4% paraformaldehyde for 30 min and incubations with respective primary and secondary antibodies were performed for 2 h at room temperature in PBS containing 1% bovine serum albumin, 5% fetal calf serum and 0.05% saponin Cell nuclei were stained with Hoechst 33258 (1:1000).
(§1) For evaluation of lysosomal damage, cells were incubated with LysoTracker green (1:2000) for 30 min and stimulated as described. Lysosomal damage was defined as loss of LysoTracker fluorescence as assessed by flow cytometry. All flow cytometry experiments were performed on an LSRII cytometer (BD Biosciences), data were acquired by DIVA software (BD Biosciences) and analyzed with FlowJo software (Tree Star Inc., Ashland, Oreg.).

CAD mouse neuronal cells = experiment: Neurotoxicity assay, CAD mouse neuronal cells with or without microglia; type: cell-based
Method: (§2) For assessment of microglia-induced neurotoxicity, CAD mouse neuronal cells^47 were seeded on poly-L-lysine coated glass cover slips and grown in F12/DMEM supplemented with ciprofloxacin (Cellgro, Manassas, Va.) and 10% fetal calf serum (Hyclone, Logan, Utah) for 24 h. Differentiation was induced by withdrawal of serum for 48 h Immortalized microglia from wildtype or caspase-1^−/− mice were added in serum free medium to obtain mixed neuronal/microglial cultures and immediately stimulated. 72 h after stimulation with Aβ or media, cells were fixed, stained for the neuron-specific marker TuJ-1 and microglial marker CD11b, and imaged by confocal microscopy (Leica SP2 AOBS). Caspase-1 activity in microglial cells was assessed using the caspase-1 FLICA™ kit (Immunochemistry Technologies, Bloomington, Minn.) according to the manufacturer's instructions.

caspase-1 = experiment: Caspase-1 activation in microglia (FLICA, confocal microscopy, flow cytometry); type: cell-based, mouse; settings: immortalized microglia, Aβ 10 μM, revAβ 10 μM, ATP 1 mM, 4 h
Method: as §2, §1
IL-1β maturation is controlled by caspase-1 after assembly of the inflammasome, a multi protein complex that activates pro-caspase-1. In order to test whether Aβ activates caspase-1, we measured levels of activated caspase-1 using a fluorescent cell permeable probe (FAM-YVAD-Fmk), which covalently binds only to activated caspase-1 (Fluorescent labeled Inhibitors of Caspases, FLICA)^14. […] Similar results were obtained in primary microglial cultures (FIG. 15c).

## Aβ 1-42 peptide
ASC
  formation of fluorescent ASC-CFP clusters: brightly fluorescent clusters of ASC-CFP formed
[1]
  gene expression of chemokines CCL-3/MIP1 a, CCL4/MIP1β and CXCL2/MIP2: time-dependently upregulated
Lysosomes of microglia; microglia, 4 h after Aβ stimulation
  cells with enlarged lysosomes not staining for cathepsin B: 15-20%
Lysosomes of microglia; microglia, Aβ-FITC
  diameter of Aβ-containing lysosomes, largest observed: up to 11 μm
  diameter of Aβ-containing lysosomes, mean: 4.1±0.4 μm
Lysosomes of microglia; microglia, of all cells
  cells with extensive enlargement and swelling of Aβ-containing lysosomes: ~15%
Lysosomes of microglia; wild type microglia, Aβ 1, 3 and 10 μM, flow cytometry
  cells negative for LysoTracker fluorescence: increased dose-dependently; also recorded: induced loss of LysoTracker Green fluorescence
CAD mouse neuronal cells; mixed neuronal/microglial cultures with wild type microglia, Aβ 10 μM, 72 h
  neuronal cell death: widespread neuronal cell death
CAD mouse neuronal cells; neuronal mono-culture
  effects on neuronal cells: only minimal morphological and quantitative effects
caspase-1
  caspase-1 positive microglial cells after stimulation: robust increase
